Values joined by “and” are separate entries in the source; they are usually repeats but may differ in a detail not shown here. Equal entries are not always repeated.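 Assay format: 96-well plates, 48-hour exposure. Here, GI50 denotes the concentration required for 50% inhibition of growth. TGI: total growth inhibition.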
These compounds were tested on A498 renal (assay: growth of human tumour cells (NCI), 48 h).

Structure (SMILES)	TGI	GI50
N#CC(N)(C(=O)CCC(=O)Nc1cccc(Cl)c1)c1ccc(Cl)cc1 (stereo not given)	> 100 µM	–
COc1cnc2c(c1)C(=O)c1c-2n(CCCNC(C)C)c(=O)c2cc(Cl)ccc12	5.27 µM	0.334 µM
S=C(Nc1ccccc1)N(/N=C/C=C/c1ccccc1)c1nnc(-c2ccccc2)c(-c2ccccc2)n1	> 100 µM	–
CN1CCN(CCOc2ccc(-c3cnc4c(-c5ccccc5F)cnn4c3)cc2)CC1	2.9 µM	1.43 µM

What follows are compounds tested on SK-OV-3 ovarian (assay: growth of human tumour cells (NCI), 48 h).

Structure (SMILES)	GI50	TGI
OC[C@H]1C[C@](O)(c2ccc(Cl)cc2)[C@@H](c2ccc(Cl)cc2)O1	39.4 µM	> 100 µM
CC(C)N(C(=O)C12C3C4C5(C#N)C3C1(C#N)C5C42I)C(C)C (stereo not given)	–	> 100 µM
C=CCCCCC/C=C\[C@H](O)C#CC#C/C=C/CO	> 100 µM	> 100 µM
Cc1cc([N+](=O)[O-])ccc1Nc1cccc(Cl)c1C	–	47.7 µM
O/N=C/C1C(OCc2ccccc2)C(OCc2ccccc2)C(OCc2ccccc2)CN1Cc1ccccc1 (stereo not given)	22.7 µM and > 100 µM	51.3 µM and > 100 µM
Cn1cc(CO)c2c1C(=O)C=C(N1CC1)C2=O	0.0413 µM	1.31 µM
CC1=C(C(=O)Nc2ccccc2)C(c2ccccc2)C(C(=O)Nc2ccccc2)=C(C)N1	–	> 100 µM
Cc1nn(-c2ccccc2)c2nc(N3CCOCC3)nnc12	–	> 100 µM
[Cl][Hg][c]1cc(Br)cc(Br)c1	4.07 µM	13 µM
CC(C)c1ccc2c(c1)CC[C@@H]1[C@@](C)(C(=O)O)CCC[C@]21C	4.49 µM	21.4 µM
C=C1C(=O)O[C@@H]2C[C@@H]1CC/C(C)=C/CC/C(C)=C/CC[C@@]2(C)O	46.6 µM	> 100 µM
CCOc1ccccc1C=C1c2ccccc2C(=O)c2ccccc21	–	8.67 µM
O=C(CCn1[nH]c(=O)c(Cl)c(Cl)c1=O)NO	–	> 100 µM
COc1ccc(C(C)=O)cc1N1C(=O)C2C(C1=O)C1(c3ccccc3)C(=O)C2(c2ccccc2)C(c2ccc(C)cc2)=C1c1ccc(C)cc1 (stereo not given)	> 100 µM	> 100 µM
[N-]=[N+]=NC12CC3C4CC5CC3C(C1)C(C5)C4C2	–	> 100 µM
CN(C)c1nc2ccccc2[nH]1	–	> 100 µM
NNC(=S)N/N=C(\CC1OC(=O)c2ccccc21)c1ccccc1O (stereo not given)	–	> 100 µM
COC(=O)C1=C(O)c2cc(OC)c(OC)cc2C(c2ccc(OC)c(OC)c2)C1 (stereo not given)	–	> 100 µM
COC1(OC)CC2C(=O)N(Cc3ccccc3)C1C(S(=O)(=O)c1ccccc1)C2S(=O)(=O)c1ccccc1 (stereo not given)	–	54.2 µM

Structure (SMILES)	GI50	TGI
NC(=Nc1c([N+](=O)[O-])cnc2ccccc12)N1CCOCC1	–	> 100 µM
CCN(CC)c1ccc2c(c1)OC(N)=C(C#N)C2c1cc(OC)c2c(c1)OCO2 (stereo not given)	0.035 µM	12.7 µM
Cc1cc(CC(O)c2ccc(Cl)c(Cl)c2)nc(=O)[nH]1 (stereo not given)	–	> 100 µM
COC(=O)C(=Cc1cc(OC)ccc1OC)C(=O)OC	–	76.2 µM
CC1=NNC(=O)C2CCC(=O)N12 (stereo not given)	–	> 100 µM
CC(C)c1ccccc1NC(=O)CCc1n[nH]c(=S)o1	–	> 100 µM
CCCCC(C(=O)C(=O)NC1C2CC3CC(C2)CC1C3)C(=O)C(C)C (stereo not given)	–	> 100 µM
COC(=O)c1cc2c(s1)C(=O)c1ccccc1-2	–	> 100 µM
CC(C)CCN1c2nc(Nc3cc(F)c(O)c(F)c3)ncc2N(C)C(=O)C1C (stereo not given)	2.89 µM	> 100 µM
Cn1c2c(c3ccccc31)C1CCCCCCC1C1C(=O)OC(=O)C21 (stereo not given)	–	> 100 µM
Cc1ccc(S(=O)(=O)N(CC(=O)O)c2ccccc2)cc1	–	> 100 µM
COc1ccc(C(=O)C(c2ccc(OC)cc2)C2(O)C(=O)Nc3ccc([N+](=O)[O-])cc32)cc1 (stereo not given)	–	> 100 µM
O=C(/C=C/c1ccccc1O)c1ccccc1O	–	> 100 µM
Cc1nc2c(-c3cnc(N)nc3)nc(N3CCOCC3)nc2n1C(C)C	–	0.57 µM and 0.226 µM
COc1ccc(/C=C(/C(=O)N2CCN(c3ccccc3)CC2)c2cc(OC)c(OC)c(OC)c2)cc1O	0.586 µM	> 100 µM
N#Cc1c(NN)n(C2OC(CO)C(O)C2O)c2ncnc(N)c12 (stereo not given)	0.198 µM	0.722 µM
N#CC(N)(C(=O)CCC(=O)Nc1cccc(Cl)c1)c1ccc(Cl)cc1 (stereo not given)	–	> 100 µM
S=C(Nc1ccccc1)N(/N=C/C=C/c1ccccc1)c1nnc(-c2ccccc2)c(-c2ccccc2)n1	–	> 100 µM

Source: PubChem BioAssay (NCI)
